Measurements as given in patent publication US11312722B2, “Hsp90 inhibitors and uses thereof” (TRUSTEES OF BOSTON UNIVERSITY, priority 2019, dated 2022).

Assays:
[1] = target: Hsp90 (C. neoformans whole cell lysate) (Cryptococcus neoformans, UniProt J9VVA4); assay type: binding; details: for C. neo Active (biochemical): Yes/No call; for EC50: read-out: C. neo EC50
Experimental: (§1) All analogs were assessed for Hsp90 binding affinity using a fluorescence polarization (FP)-based equilibrium competition assay in fungal and human whole cell lysates. […] Using lysates, the relative potency and selectivity for fungal Hsp90 was measured versus the entire ensemble of human Hsp90 isoforms in microplate format using small amounts of test materials. […] Thermal shift assays were performed under saturating ligand conditions, i.e. equimolar concentrations (10 μM) of protein and ligand. As a result, they provided qualitative evidence of target binding, but not a quantitative measurement of ligand affinity. For quantitation, a ligand dissociation constant (Ki) for key compounds was also determined using purified NBDs in FP assays and KD measurements were made by surface plasmon resonance (SPR) using a Biacore instrument. Finally, all analogs were assessed for whole cell antifungal activity against the pathogens C. albicans and C. neoformans.
(§2) FP assays. Whole cell lysates were prepared for FP assays as described previously. Total protein concentration of human and yeast lysates was determined by Bradford assay. […] Serial dilutions of test Hsp90 inhibitors were then assayed under these same conditions to monitor loss of fluorescence polarization as an indicator of probe displacement from Hsp90. […] Titrations of test compound in 25 μL of binding buffer (supplemented with 0.1 mg/mL bovine gamma globulin), were mixed with an equal volume of freshly prepared whole-cell lysate spiked with Cy3-GdA (0.1 nM). Plates were incubated at room temperature for 4.5 h to achieve equilibrium binding for the geldanamycin-based probe. […] Non-linear 4-parameter curve fitting of raw displacement data was performed in GraphPad Prism 5.0 to determine EC50 values as a measure of relative Hsp90-binding affinity. Results were normalized to the value determined for GdA in lysate of each cell type.
(§3) Statistical methods. […] In calculating the error of selectivity determinations, the fractional error of measurements in each species was summed to yield a composite error for the derived ratio.

[2] = tested on: Hsp90 (C. neoformans whole cell lysate); assay type: binding; details: Yes/No call
Experimental: as §1, §2, §3

[3] = tested on: Hsp90 (C. albicans whole cell lysate); assay: biochemical; assay type: binding; details: for C. alb Selective: Yes/No call
In short: (§4)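 In this fluorescence polarization competition assay, compound titrations in buffer with 0.1 mg/mL bovine gamma globulin were mixed with fungal whole-cell lysate spiked with 0.1 nM Cy3-geldanamycin probe. Plates were incubated 4.5 h at room temperature. EC50 came from 4-parameter fits of probe displacement, normalized to GdA in the same lysate.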

[4] = target: Hsp90 (C. albicans whole cell lysate) (Candida albicans (strain SC5314 / ATCC MYA-2876) (Yeast), UniProt P46598); assay: biochemical; assay type: binding; details: for C. alb Active (biochemical): Yes/No call; for EC50: read-out: C. alb EC50
In short: as §4

C. neoformans Hsp90 NBD [5] = target: T1, C. neoformans Hsp90 NBD (Cryptococcus neoformans, UniProt J9VVA4); assay: FP assay with purified C. neoformans Hsp90 NBD (Ki); assay type: binding; details: for C. neo Selectivity (FS): C. neo FS calculated using Ki
Experimental: Thermal shift assays were performed under saturating ligand conditions, i.e. equimolar concentrations (10 μM) of protein and ligand. As a result, they can provide only qualitative evidence of target binding, but not a quantitative measurement of ligand affinity. […] Titrations of the Cy3-GdA probe and purified proteins were evaluated to define assay conditions and to determine the dissociation constant Kd of the probe for each NBD. Serial dilutions of test Hsp90 inhibitors were then assayed in triplicate wells under these conditions. Non-linear 4-parameter curve fitting of raw displacement data was performed in GraphPad Prism 5.0 to determine IC50 values. Finally, inhibitory constants (Ki) were calculated as described previously.
NBD expression and purification. Recombinant Hsp90 NBDs were expressed and purified as previously described. Stock protein solutions in 50% glycerol were stored at −20° C. until dilution into relevant buffers and use for FP and thermal shift assays.

[6] = tested on: C. neoformans (Strain H99); assay: Antifungal sensitivity testing (MIC), C. neoformans H99; assay type: cell-based; details: for C. neo Active (cells): Yes/No call; for MIC80 / MIC90: Cryptococcus neoformans; for MIC80: read-out: C. neo MIC80; for MIC90: read-out: C. neo MIC90
[7] = tested on: C. albicans clinical isolate (CaCi2); assay: Fungicidal activity: spotting of MIC cultures onto compound-free YPD agar; assay type: cell-based; details: C. albicans CaCi2, spotted on YPD agar after 48 h exposure
Experimental: Color scale bar: no growth inhibition (green) to complete inhibition (black). Each shaded box represents the mean of technical duplicates. The experiment was repeated as an independent biological replicate to confirm results.
Each shaded box represents the mean of technical duplicates. Relative viable cell number was monitored by standard dye reduction assay after 3-hr incubation with resazurin at 37° C. FIG. 6B: Following exposure to compounds, aliquots of the culture in each well were spotted onto compound-free YPD agar and plates incubated at 30° C. for an additional 24 hours before imaging to assess viability. The entire experiment consisting of growth in liquid culture followed by spotting onto YPD agar was repeated once.
Antifungal sensitivity testing. […] Each compound was tested in duplicate in at least two independent experiments. […] Plates were photographed after 24 h of incubation at 30° C.

C. neoformans Hsp90 NBD [8] = target: T1, C. neoformans Hsp90 NBD; assay: Protein thermal shift assay, C. neoformans Hsp90 NBD; assay type: binding; details: equimolar protein and ligand (10 μM)
Experimental: […]. Using recombinant proteins, assay-independent nanomolar inhibitory constants (Ki) were defined for these compounds. Binding of the compounds to their relevant NBD by thermal shift denaturation assays was also confirmed. Thermal shift assays were performed under saturating ligand conditions, i.e. equimolar concentrations (10 μM) of protein and ligand. As a result, they can provide only qualitative evidence of target binding, but not a quantitative measurement of ligand affinity. […] […]. C. neoformans or C. albicans Hsp90 NBD was combined with equimolar concentrations of the indicated bioactive inhibitors (10 μM) or DMSO control, in technical triplicates. The protein was heated from 25 to 98.6° C. at 0.2° C./5 s in the presence of Sypro Orange dye. All compounds induce an increase in melting temperature relative to the DMSO control, reported as ΔTm.
Protein thermal shift assays. Thermal melting curves were determined using a Protein Thermal Shift Kit (ThermoFisher #4462263), employing a CFX384 Real-Time PCR System (Bio-Rad, C1000 Touch Thermal Cycler). Reactions were performed in a final volume of 10 μL, and contained purified C. albicans or C. neoformans Hsp90 NBD diluted to 250 μg/mL in Buffer HBS-P (GE Healthcare Life Sciences, 0.01 M HEPES pH 7.4, 0.15 M NaCl, 0.005% v/v Surfactant P20) with 10 μM synthetic analog or DMSO control, and 1× Sypro Orange dye solution. Samples were prepared in triplicate in 384-well white plates (Bio-Rad; HSP3805). The instrument was set to melt curve, step 1 (25° C., 2 min) and step 2 (ramp to 98.6° C., increasing 0.2° C. per 5 s cycle). The inflection point of each curve is defined as the protein melting temperature (Tm). Temperature shift, ΔTm, was recorded as the difference between the Tm of the fungal Hsp90 NBD with compound minus Tm of the protein without compound.

[9] = mouse liver microsomes; for % remaining at 15 min (NADPH-free): NADPH-free control; for % remaining at 15 min / % remaining at 60 min: with NADPH
in vitro = details: both, CD-1, mouse; for CLint scaled at 1 μM: liver microsomes
C. neoformans Hsp90 NBD [10] = target: T1, C. neoformans Hsp90 NBD; assay: biochemical; assay type: binding; details: SPR, 25° C., read-out: Biacore KD
Experimental: SPR assays. For SPR experiments, Hsp90 NBD expression constructs were modified to encode a C-terminal AviTag™ for site-specific on-column biotinylation with a BirA biotin-ligase kit (Avidity LLC; BirA-500). SPR experiments were performed on a Biacore T200 instrument at 25° C. Biotinylated Hsp90 NBD was diluted to 40 μg/mL and immobilized on a streptavidin chip (Sensor Chip SA, GE Healthcare) at a density of 2000-2500 response units (RU) on the biosensor surface. […] Resulting sensorgrams were analyzed with a fit to a 1:1 binding model, using BIA evaluation software.

T1 sequence (J9VVA4 1-699): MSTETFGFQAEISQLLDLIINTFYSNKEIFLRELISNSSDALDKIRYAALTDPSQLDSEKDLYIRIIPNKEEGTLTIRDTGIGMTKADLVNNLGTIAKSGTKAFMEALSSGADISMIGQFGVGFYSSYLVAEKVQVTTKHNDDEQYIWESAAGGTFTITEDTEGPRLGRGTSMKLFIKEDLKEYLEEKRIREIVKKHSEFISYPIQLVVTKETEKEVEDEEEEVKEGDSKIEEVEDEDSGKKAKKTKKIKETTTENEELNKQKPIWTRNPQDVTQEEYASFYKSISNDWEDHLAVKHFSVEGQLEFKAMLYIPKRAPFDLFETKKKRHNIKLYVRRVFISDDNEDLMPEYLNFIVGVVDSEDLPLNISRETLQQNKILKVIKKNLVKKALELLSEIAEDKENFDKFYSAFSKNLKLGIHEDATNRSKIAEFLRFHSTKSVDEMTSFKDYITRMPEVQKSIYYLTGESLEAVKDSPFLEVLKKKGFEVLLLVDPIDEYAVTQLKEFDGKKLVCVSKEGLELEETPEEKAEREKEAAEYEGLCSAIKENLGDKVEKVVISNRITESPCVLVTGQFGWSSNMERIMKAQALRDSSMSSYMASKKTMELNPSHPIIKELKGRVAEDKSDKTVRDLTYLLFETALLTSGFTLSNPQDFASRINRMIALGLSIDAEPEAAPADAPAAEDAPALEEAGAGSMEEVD
Hsp90 (C. neoformans whole cell lysate) (Cryptococcus neoformans, UniProt J9VVA4), sequence (J9VVA4 1-699): as above

Row | Compound | EC50 [1] [nM] | C. alb Selectivity (FS) [3] | C. alb Selective [3] | C. alb Active (biochemical) [4] | EC50 [4] [nM] | C. neo Selectivity (FS) (C. neoformans Hsp90 NBD [5]) | C. neo MIC80 [6] [µM] | C. neo MIC90 [6] [µM] | other results
1 | COc1ccccc1-c1cc(Nc2cc(O)cc(O)c2C(=O)N2CC[C@H](NC(C)=O)C2)n(C)n1 [ACSM01348] | 620 | >5 | Yes | Yes | 2250 | 107.7 | >25 | >25 | C. neo Active (biochemical) [1]: Yes; C. neo selective [2]: Yes; C. neo Active (cells) [6]: No
2 | COc1ccccc1-c1cc(Nc2cc(O)cc(O)c2C(=O)N2CC[C@H](NC(C)=O)C2)n(C)n1 [ACSM01349] | 246 | 9.5 | Yes | Yes | 1210 | 159.7 | >25 | >25 | C. neo Active (biochemical) [1]: Yes; C. neo selective [2]: Yes; C. neo Active (cells) [6]: No
3 | COc1ccccc1-c1cc(Nc2cc(O)cc(O)c2C(=O)N2CC[C@@H](OC)C2)n(C)n1 [ACSM01350] | 106 | 9.2 | Yes | Yes | 233 | 259.7 | >25 | >25 | C. neo Active (biochemical) [1]: Yes; C. neo selective [2]: Yes; C. neo Active (cells) [6]: No
4 | COc1ccccc1-c1cc(Nc2cc(O)cc(O)c2C(=O)N2CC[C@H](OC)C2)n(C)n1 [ACSM01351] | 244 | 4.6 | No | Yes | 628 | 98 | >25 | >25 | –
5 | Cn1nc(-c2ccccc2)cc1Nc1cc(O)cc(O)c1C(=O)N1Cc2ccncc2C1 [BUCMD00467] | 151 | 0.4 | No | Yes | 1040 | 57.3 | >25 | >25 | –
6 | COc1ccc(Cn2nc(-c3ccccc3)cc2Nc2cc(O)cc(O)c2C(=O)N2Cc3ccccc3C2)cc1 [Compound 21, 4-(2,3-dihydro-1H-isoindole-2-carbonyl)-5-((1-((4-methoxyphenyl)methyl)-3-phenyl-1H-pyrazol-5-yl)amino)benzene-1,3-diol] | – | – | – | – | – | – | – | – | fungicidal activity in combination with fluconazole [7]: fungicidal activity in combination with fluconazole; C. neoformans NBD ΔTm (C. neoformans Hsp90 NBD [8]): 14 °C
7 | COc1ccc(Cn2ncc(C)c2Nc2cc(O)cc(O)c2C(=O)N2Cc3ccccc3C2)cc1 [Compound 41, 4-(2,3-Dihydro-1H-isoindole-2-carbonyl)-5-((1-((4-methoxyphenyl)methyl)-4-methyl-1H-pyrazol-5-yl)amino)benzene-1,3-diol] | – | – | – | – | – | – | – | – | fungicidal activity in combination with fluconazole [7]: fungicidal activity in combination with fluconazole
8 | Cc1cc(Nc2cc(O)cc(O)c2C(=O)N2Cc3ccccc3C2)n(Cc2ccccc2Cl)n1 [Compound 89, 5-((1-((2-Chlorophenyl)methyl)-3-methyl-1H-pyrazol-5-yl)amino)-4-(2,3-dihydro-1H-isoindole-2-carbonyl)benzene-1,3-diol] | – | – | – | – | – | – | – | – | fungicidal activity in combination with fluconazole [7]: fungicidal activity in combination with fluconazole; C. neoformans NBD ΔTm (C. neoformans Hsp90 NBD [8]): 12 °C
9 | COc1cccc(-c2cc(Nc3cc(O)cc(O)c3C(=O)N3Cc4cccnc4C3)n(C)n2)c1 [Compound 113, 5-((3-(3-Methoxyphenyl)-1-methyl-1H-pyrazol-5-yl)amino)-4-(5H,6H,7H-pyrrolo[3,4-b]pyridine-6-carbonyl)benzene-1,3-diol] | – | – | – | Yes | – | – | – | – | % remaining at 15 min (NADPH-free) [9]: 109.2%; % remaining at 15 min [9]: 4.9%; % remaining at 60 min [9]: 0%; CLint scaled at 1 μM (in vitro): 1590 mL/min/kg; half-life (in vitro; microsomes): 3.4 min; Kd (C. neoformans Hsp90 NBD [10]): 67 nM; MIC80 [6]: > 25 µM; MIC90 [6]: > 25 µM
10 | COc1cccc(-c2cc(Nc3cc(O)cc(O)c3C(=O)N3Cc4cn[nH]c4C3)n(C)n2)c1 [Compound 114, 5-((3-(3-Methoxyphenyl)-1-methyl-1H-pyrazol-5-yl)amino)-4-(1H,4H,5H,6H-pyrrolo[3,4-c]pyrazole-5-carbonyl)benzene-1,3-diol] | – | – | – | Yes | – | – | – | – | % remaining at 15 min (NADPH-free) [9]: 108.2%; % remaining at 15 min [9]: 40.1%; % remaining at 60 min [9]: 7.0%; CLint scaled at 1 μM (in vitro): 318 mL/min/kg; Kd (C. neoformans Hsp90 NBD [10]): 22 nM; MIC80 [6]: > 25 µM; MIC90 [6]: > 25 µM
11 | Cn1nc(-c2ccc(C(F)(F)F)cc2)cc1Nc1cc(O)cc(O)c1C(=O)N1Cc2ccccc2C1 [Compound 124, 4-(2,3-Dihydro-1H-isoindole-2-carbonyl)-5-((1-methyl-3-(4-(trifluoromethyl)phenyl)-1H-pyrazol-5-yl)amino)benzene-1,3-diol] | – | – | – | – | – | – | – | – | C. neoformans NBD ΔTm (C. neoformans Hsp90 NBD [8]): 1 °C; Ki (C. neoformans Hsp90 NBD [5]; FP, purified recombinant NBD): 190 nM
